Test system: MDA-MB-231 human breast cancer cell line
Details: MDA-MB-231, 10,000 cells/well; same amount of doxorubicin; exosomes 2.56×10^11 particles/mL; FIG. 11

## COc1cccc2c1C(=O)c1c(O)c3c(c(O)c1C2=O)C[C@@](O)(C(=O)CO)C[C@@H]3O[C@H]1C[C@H](N)[C@H](O)[C@H](C)O1 [doxorubicin]
  growth of the breast cancer cells: inhibited the growth of the breast cancer cells

Source: patent US20240018211A1, “EXOSOME COMPRISING OVEREXPRESSED FC RECEPTOR OR PORTION THEREOF, AND METHOD FOR PREPARING SAME” (EXOCOBIO INC, priority 2021, published 2024)
